Measurements as given in PubChem BioAssay AID1918932 (Molecular Pharmacology Branch, DTP, NCI, 2023).

Test system: 171881-019-R-J1-PDC complex spheroid viability
Assay: Anticancer human tumor 171881-019-R-J1-PDC patient-derived invasive breast carcinoma cell line growth inhibition
Conditions: for IC50: curve of first compound; for viability, T/C: stronger effect = lower value
Summary of the method: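 Drug combinations with the LSD1 inhibitor iadademstat tested on tumor cells co-cultured as spheroids with endothelial cells and mesenchymal stem cells. Concentrations descended in half-log increments from clinical Cmax or 10 microM.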

[1] = second compound 0.1 µM, first compound 0.00949 µM
[2] = second compound 0.1 µM, first compound 0.03 µM
[3] = second compound 0.1 µM, first compound 0.0949 µM
[4] = second compound 0.1 µM, first compound 0.3 µM
[5] = second compound 0.316 µM, first compound 0.00949 µM
[6] = second compound 0.316 µM, first compound 0.03 µM
[7] = second compound 0.316 µM, first compound 0.0949 µM
[8] = second compound 0.316 µM, first compound 0.3 µM
[9] = second compound 1 µM, first compound 0.00949 µM
[10] = second compound 1 µM, first compound 0.03 µM
[11] = second compound 1 µM, first compound 0.0949 µM
[12] = second compound 1 µM, first compound 0.3 µM
[13] = second compound 3.16 µM, first compound 0.00949 µM
[14] = second compound 3.16 µM, first compound 0.03 µM
[15] = second compound 3.16 µM, first compound 0.0949 µM
[16] = second compound 3.16 µM, first compound 0.3 µM
[17] = second compound 10 µM, first compound 0.00949 µM
[18] = second compound 10 µM, first compound 0.03 µM
[19] = second compound 10 µM, first compound 0.0949 µM
[20] = second compound 10 µM, first compound 0.3 µM
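Note: spheroids exposed to agents for 7 days after 3 days growth.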

COc1cc(C2c3cc4c(cc3C(OC3OC5COC(C)OC5C(O)C3O)C3COC(=O)C23)OCO4)cc(OC)c1O (stereo not given) + NC1CCC(NC2CC2c2ccccc2)CC1
IC50 (second compound 0.1 µM): 439 nM | IC50 (second compound 0.316 µM): 440 nM | IC50 (second compound 1 µM): 511 nM | IC50 (second compound 3.16 µM): 536 nM | IC50 (second compound 10 µM): 649 nM | viability, T/C [1]: 72.8% | viability, T/C [2]: 90.8% | viability, T/C [3]: 87.9% | viability, T/C [4]: 56.8% | viability, T/C (second compound 0.1 µM, first compound 0.949 µM): 33.2% | viability, T/C (second compound 0.1 µM, first compound 3 µM): 18.5% | viability, T/C [5]: 76.8% | viability, T/C [6]: 98.2% | viability, T/C [7]: 94% | viability, T/C [8]: 58.1% | viability, T/C (second compound 0.316 µM, first compound 0.949 µM): 33.1% | viability, T/C (second compound 0.316 µM, first compound 3 µM): 18.4% | viability, T/C [9]: 87.6% | viability, T/C [10]: 87.8% | viability, T/C [11]: 86.5% | viability, T/C [12]: 57.9% | viability, T/C (second compound 1 µM, first compound 0.949 µM): 39% | viability, T/C (second compound 1 µM, first compound 3 µM): 19.8% | viability, T/C [13]: 80.7% | viability, T/C [14]: 99.1% | viability, T/C [15]: 96.4% | viability, T/C [16]: 60.3% | viability, T/C (second compound 3.16 µM, first compound 0.949 µM): 40.8% | viability, T/C (second compound 3.16 µM, first compound 3 µM): 22.2% | viability, T/C [17]: 80.9% | viability, T/C [18]: 104% | viability, T/C [19]: 95% | viability, T/C [20]: 67.8% | viability, T/C (second compound 10 µM, first compound 0.949 µM): 42.5% | viability, T/C (second compound 10 µM, first compound 3 µM): 25.8%

Nc1ccn(C2OC(CO)C(O)C2(F)F)c(=O)n1 (stereo not given) + NC1CCC(NC2CC2c2ccccc2)CC1
IC50 (second compound 0.1 µM): > 300 nM | IC50 (second compound 0.316 µM): > 300 nM | IC50 (second compound 1 µM): > 300 nM | IC50 (second compound 3.16 µM): > 300 nM | IC50 (second compound 10 µM): > 300 nM | viability, T/C (second compound 0.1 µM, first compound 0.000949 µM): 77.4% | viability, T/C (second compound 0.1 µM, first compound 0.003 µM): 53.8% | viability, T/C [1]: 56.2% | viability, T/C [2]: 59.2% | viability, T/C [3]: 57.8% | viability, T/C [4]: 55.6% | viability, T/C (second compound 0.316 µM, first compound 0.000949 µM): 77.7% | viability, T/C (second compound 0.316 µM, first compound 0.003 µM): 54.9% | viability, T/C [5]: 54.6% | viability, T/C [6]: 58.6% | viability, T/C [7]: 56.4% | viability, T/C [8]: 54.3% | viability, T/C (second compound 1 µM, first compound 0.000949 µM): 85.6% | viability, T/C (second compound 1 µM, first compound 0.003 µM): 56.5% | viability, T/C [9]: 57.8% | viability, T/C [10]: 60.4% | viability, T/C [11]: 58% | viability, T/C [12]: 54.7% | viability, T/C (second compound 3.16 µM, first compound 0.000949 µM): 84.8% | viability, T/C (second compound 3.16 µM, first compound 0.003 µM): 56% | viability, T/C [13]: 60.8% | viability, T/C [14]: 63.4% | viability, T/C [15]: 60.1% | viability, T/C [16]: 54.7% | viability, T/C (second compound 10 µM, first compound 0.000949 µM): 90.5% | viability, T/C (second compound 10 µM, first compound 0.003 µM): 62.5% | viability, T/C [17]: 64% | viability, T/C [18]: 70% | viability, T/C [19]: 68.5% | viability, T/C [20]: 64.1%

O=C(c1cc(Cc2n[nH]c(=O)c3ccccc23)ccc1F)N1CCN(C(=O)C2CC2)CC1 + NC1CCC(NC2CC2c2ccccc2)CC1
IC50 (second compound 0.1 µM): > 10000 nM | IC50 (second compound 0.316 µM): > 10000 nM | IC50 (second compound 1 µM): > 10000 nM | IC50 (second compound 3.16 µM): > 10000 nM | IC50 (second compound 10 µM): > 10000 nM | viability, T/C (second compound 0.1 µM, first compound 0.0316 µM): 85.3% | viability, T/C (second compound 0.1 µM, first compound 0.1 µM): 86.6% | viability, T/C (second compound 0.1 µM, first compound 0.316 µM): 82.4% | viability, T/C (second compound 0.1 µM, first compound 1 µM): 86.6% | viability, T/C (second compound 0.1 µM, first compound 3.16 µM): 84.7% | viability, T/C (second compound 0.1 µM, first compound 10 µM): 85.1% | viability, T/C (second compound 0.316 µM, first compound 0.0316 µM): 91.7% | viability, T/C (second compound 0.316 µM, first compound 0.1 µM): 82.7% | viability, T/C (second compound 0.316 µM, first compound 0.316 µM): 87.7% | viability, T/C (second compound 0.316 µM, first compound 1 µM): 79.6% | viability, T/C (second compound 0.316 µM, first compound 3.16 µM): 86.2% | viability, T/C (second compound 0.316 µM, first compound 10 µM): 82% | viability, T/C (second compound 1 µM, first compound 0.0316 µM): 90.6% | viability, T/C (second compound 1 µM, first compound 0.1 µM): 95.9% | viability, T/C (second compound 1 µM, first compound 0.316 µM): 88.9% | viability, T/C (second compound 1 µM, first compound 1 µM): 79.9% | viability, T/C (second compound 1 µM, first compound 3.16 µM): 85.8% | viability, T/C (second compound 1 µM, first compound 10 µM): 80% | viability, T/C (second compound 3.16 µM, first compound 0.0316 µM): 99.8% | viability, T/C (second compound 3.16 µM, first compound 0.1 µM): 87.8% | viability, T/C (second compound 3.16 µM, first compound 0.316 µM): 86.3% | viability, T/C (second compound 3.16 µM, first compound 1 µM): 79.3% | viability, T/C (second compound 3.16 µM, first compound 3.16 µM): 88.4% | viability, T/C (second compound 3.16 µM, first compound 10 µM): 80.9% | viability, T/C (second compound 10 µM, first compound 0.0316 µM): 83.8% | viability, T/C (second compound 10 µM, first compound 0.1 µM): 82.9% | viability, T/C (second compound 10 µM, first compound 0.316 µM): 78.3% | viability, T/C (second compound 10 µM, first compound 1 µM): 74.2% | viability, T/C (second compound 10 µM, first compound 3.16 µM): 81.9% | viability, T/C (second compound 10 µM, first compound 10 µM): 80.5%
